Source: EPA's ToxValDB 9.5 (doi:10.2903/j.efsa.2009.203r)
Converted amounts (≈) assume the structure as drawn.

Tests used:
[1] = tested on: Colinus virginianus; settings: acute, oral, mortality
[2] = tested on: Canidae; settings: oral, Dog Other, histopathology: nonneoplastic
[3] = tested on: Anas platyrhynchos; settings: short-term; oral; feed; mortality
[4] = tested on: Rattus norvegicus; settings: for LD50: acute, mortality
[5] = tested on: Oncorhynchus mykiss; settings: acute; duration: 96 hours; mortality

Structure (SMILES)	LC50 ([1]; diet) [mg/kg-day]	LD50 [1] [mg/kg-day]	NOAEL ([2]; chronic, duration: 1 years, capsule) [mg/kg-day]	LC50 [3] [mg/kg-day]	LD50 ([4]; oral) [mg/kg-day]	NOAEL ([4]; chronic, duration: 2 years, histopathology: nonneoplastic) [mg/kg-day]	NOAEL ([4]; developmental, oral, gavage, development) [mg/kg-day]	LC50 [5] [µg/mL]	NOAEL ([2]; subchronic, duration: 90 days, gavage) [mg/kg-day]	NOAEL ([4]; chronic, duration: 104 weeks, oral, drinking water, histopathology: nonneoplastic) [mg/kg-day]	NOAEL ([4]; reproduction developmental) [mg/kg-day]
CNC(=S)[S-].[Na+] [Metam-sodium]	> 448	211	0.1	> 324	896	1.5	5				
CN=C=S [Methyl isothiocyanate]					147			0.0531 (≈ 0.726 µM)	0.4	0.44	3
